Laboratory results reported in US9708314B2, “Heterocyclic amide compound” (NISSAN CHEMICAL INDUSTRIES, LTD., priority 2013, dated 2017).

Experiments:
Format in all cases: in vivo
Leptochloa chinensis = assay: Test Example 3: herbicidal effect by application to foliage (Wagner pot, water depth 0.1-0.5 cm); settings: Nineteenth Table; application to foliage; application herbicide amount 320 g/ha
Method in brief: (§1)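 Rice-field weeds and directly sown rice were grown 14 days in flooded alluvial soil (water depth 0.1–0.5 cm) at 25–30 °C in a greenhouse. An emulsion formulation diluted to the stated g/ha rate was sprayed onto stems and leaves. Effects were scored on a 0–5 scale (herbicidal ratio bands) three weeks after treatment.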

Cyperus difformis = assay: as above; settings: Nineteenth Table; application to foliage; application herbicide amount 320 g/ha
Method in brief: as §1

[1] = test system: Echinochloa crus-galli var. crus-galli; assay: as above; settings: Nineteenth Table; application to foliage; application herbicide amount 320 g/ha
Method in brief: as §1

Veronica persica = assay: Test Example 4: herbicidal effect by application to foliage (diluvial soil, plastic box); settings: foliage application, 320 g/ha
Method in brief: (§2)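 Greenhouse plants (25° C. to 30° C., 14 d, diluvial soil) receive a foliar spray of water-diluted emulsifiable formulation at defined g/ha. Grading after 3 weeks uses a six-step herbicidal-ratio scale, with 4 covering 70% to <90% and 1 covering 5% to <20%.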

Galium spurium = assay: as above; settings: foliage application, 320 g/ha
Method in brief: as §2

Alopecurus myosuroides = assay: as above; settings: foliage application, 320 g/ha
Method in brief: as §2

Setaria viridis = assay: as above; settings: foliage application, 320 g/ha
Method in brief: as §2

Digitaria ciliaris = assay: as above; settings: foliage application, 320 g/ha
Method in brief: as §2

Stellaria media = assay: as above; settings: foliage application, 320 g/ha
Method in brief: as §2

Row | Structure (SMILES) | D (herbicidal effect grade) (Leptochloa chinensis) | E (herbicidal effect grade) (Cyperus difformis) | H (herbicidal effect grade) [1] | R (Veronica persica) herbicidal effect grade (Veronica persica) | Q (Galium spurium) herbicidal effect grade (Galium spurium) | J (Alopecurus myosuroides) herbicidal effect grade (Alopecurus myosuroides) | G (Setaria viridis) herbicidal effect grade (Setaria viridis) | F (Digitaria ciliaris) herbicidal effect grade (Digitaria ciliaris) | P (Stellaria media) herbicidal effect grade (Stellaria media)
1 | Cn1nnnc1NC(=O)c1ccc(C(F)(F)F)n2c(S(C)(=O)=O)nnc12 [2-037] | 5 (Herbicidal ratio of 90% or more (almost completely withered)) | 5 (Herbicidal ratio of 90% or more (almost completely withered)) | 5 (Herbicidal ratio of 90% or more (almost completely withered)) | 5 (Herbicidal ratio of 90% or more (almost completely withered)) | 5 (Herbicidal ratio of 90% or more (almost completely withered)) | 5 (Herbicidal ratio of 90% or more (almost completely withered)) | 5 (Herbicidal ratio of 90% or more (almost completely withered)) | 5 (Herbicidal ratio of 90% or more (almost completely withered)) | 5 (Herbicidal ratio of 90% or more (almost completely withered))
2 | CCS(=O)(=O)c1nnc2c(C(=O)Nc3nnnn3C)ccc(C(F)(F)F)n12 [2-038] | 5 (Herbicidal ratio of 90% or more (almost completely withered)) | 5 (Herbicidal ratio of 90% or more (almost completely withered)) | 5 (Herbicidal ratio of 90% or more (almost completely withered)) | 5 (Herbicidal ratio of 90% or more (almost completely withered)) | 5 (Herbicidal ratio of 90% or more (almost completely withered)) | 5 (Herbicidal ratio of 90% or more (almost completely withered)) | 5 (Herbicidal ratio of 90% or more (almost completely withered)) | 5 (Herbicidal ratio of 90% or more (almost completely withered)) | 5 (Herbicidal ratio of 90% or more (almost completely withered))
3 | COCCn1nnnc1NC(=O)c1ccc(C(F)(F)F)n2c(C(C)C)nnc12 [2-041] | 5 (Herbicidal ratio of 90% or more (almost completely withered)) | 5 (Herbicidal ratio of 90% or more (almost completely withered)) | 5 (Herbicidal ratio of 90% or more (almost completely withered)) | 4 (Herbicidal ratio of 70% or more and less than 90%) | 4 (Herbicidal ratio of 70% or more and less than 90%) | 3 (Herbicidal ratio of 40% or more and less than 70%) | 3 (Herbicidal ratio of 40% or more and less than 70%) | 4 (Herbicidal ratio of 70% or more and less than 90%) | 5 (Herbicidal ratio of 90% or more (almost completely withered))
4 | Cc1ccc(-c2nnc3c(C(=O)Nc4nnnn4C)ccc(C(F)(F)F)n23)cc1 [2-042] | 5 (Herbicidal ratio of 90% or more (almost completely withered)) | 5 (Herbicidal ratio of 90% or more (almost completely withered)) | 5 (Herbicidal ratio of 90% or more (almost completely withered)) | 5 (Herbicidal ratio of 90% or more (almost completely withered)) | 1 (Herbicidal ratio of 5% or more and less than 20%) | 2 (Herbicidal ratio of 20% or more and less than 40%) | 5 (Herbicidal ratio of 90% or more (almost completely withered)) | 5 (Herbicidal ratio of 90% or more (almost completely withered)) | 3 (Herbicidal ratio of 40% or more and less than 70%)
5 | Cn1nnnc1NC(=O)c1ccc(C(F)(F)F)n2c(-c3ccc(F)cc3)nnc12 [2-043] | 5 (Herbicidal ratio of 90% or more (almost completely withered)) | 5 (Herbicidal ratio of 90% or more (almost completely withered)) | 5 (Herbicidal ratio of 90% or more (almost completely withered)) | 5 (Herbicidal ratio of 90% or more (almost completely withered)) | 4 (Herbicidal ratio of 70% or more and less than 90%) | 3 (Herbicidal ratio of 40% or more and less than 70%) | 4 (Herbicidal ratio of 70% or more and less than 90%) | 5 (Herbicidal ratio of 90% or more (almost completely withered)) | 5 (Herbicidal ratio of 90% or more (almost completely withered))
6 | COc1cccc(-c2nnc3c(C(=O)Nc4nnnn4C)ccc(C(F)(F)F)n23)c1 [2-044] | 5 (Herbicidal ratio of 90% or more (almost completely withered)) | 5 (Herbicidal ratio of 90% or more (almost completely withered)) | 5 (Herbicidal ratio of 90% or more (almost completely withered)) | 5 (Herbicidal ratio of 90% or more (almost completely withered)) | 3 (Herbicidal ratio of 40% or more and less than 70%) | 2 (Herbicidal ratio of 20% or more and less than 40%) | 4 (Herbicidal ratio of 70% or more and less than 90%) | 5 (Herbicidal ratio of 90% or more (almost completely withered)) | 4 (Herbicidal ratio of 70% or more and less than 90%)
7 | COc1ccccc1-c1nnc2c(C(=O)Nc3nnnn3C)ccc(C(F)(F)F)n12 [2-045] | 5 (Herbicidal ratio of 90% or more (almost completely withered)) | 5 (Herbicidal ratio of 90% or more (almost completely withered)) | 5 (Herbicidal ratio of 90% or more (almost completely withered)) | 5 (Herbicidal ratio of 90% or more (almost completely withered)) | 3 (Herbicidal ratio of 40% or more and less than 70%) | 1 (Herbicidal ratio of 5% or more and less than 20%) | 4 (Herbicidal ratio of 70% or more and less than 90%) | 5 (Herbicidal ratio of 90% or more (almost completely withered)) | 5 (Herbicidal ratio of 90% or more (almost completely withered))
8 | COC(=O)Cn1nnnc1NC(=O)c1ccc(C(F)(F)F)n2c(C(C)C)nnc12 [2-046] | 3 (Herbicidal ratio of 40% or more and less than 70%) | 3 (Herbicidal ratio of 40% or more and less than 70%) | 2 (Herbicidal ratio of 20% or more and less than 40%) | 1 (Herbicidal ratio of 5% or more and less than 20%) | 1 (Herbicidal ratio of 5% or more and less than 20%) | 0 (Herbicidal ratio of 5% or less (almost no effect)) | 1 (Herbicidal ratio of 5% or more and less than 20%) | 0 (Herbicidal ratio of 5% or less (almost no effect)) | 2 (Herbicidal ratio of 20% or more and less than 40%)
9 | CC(C)c1nnc2c(C(=O)Nc3nnnn3C)ccc(C(F)F)n12 [2-047] | 5 (Herbicidal ratio of 90% or more (almost completely withered)) | 5 (Herbicidal ratio of 90% or more (almost completely withered)) | 4 (Herbicidal ratio of 70% or more and less than 90%) | 5 (Herbicidal ratio of 90% or more (almost completely withered)) | 3 (Herbicidal ratio of 40% or more and less than 70%) | 1 (Herbicidal ratio of 5% or more and less than 20%) | 3 (Herbicidal ratio of 40% or more and less than 70%) | 5 (Herbicidal ratio of 90% or more (almost completely withered)) | 4 (Herbicidal ratio of 70% or more and less than 90%)
10 | CN(C)c1nnc2c(C(=O)Nc3nnnn3C)ccc(C(F)(F)F)n12 [2-051] | 5 (Herbicidal ratio of 90% or more (almost completely withered)) | 5 (Herbicidal ratio of 90% or more (almost completely withered)) | 5 (Herbicidal ratio of 90% or more (almost completely withered)) | 5 (Herbicidal ratio of 90% or more (almost completely withered)) | 5 (Herbicidal ratio of 90% or more (almost completely withered)) | 4 (Herbicidal ratio of 70% or more and less than 90%) | 5 (Herbicidal ratio of 90% or more (almost completely withered)) | 5 (Herbicidal ratio of 90% or more (almost completely withered)) | 5 (Herbicidal ratio of 90% or more (almost completely withered))
